In patent publication US12065442B2, “Tropomyosin receptor kinase (TRK) degradation compounds and methods of use” (Cullgen (Shanghai), Inc., priority 2018, dated 2024):

tested on: KM12 cells; experiment: Cell viability assay (CellTiter-Glo) in KM12 cells; format: cell-based; settings: Homo sapiens, 72 h; Table 2; KM12 cell viability, CellTiter-Glo, 3 days; read-out: IC50

SMILES | IC50 [nM]
Cc1ncsc1-c1ccc(CNC(=O)[C@@H]2C[C@@H](O)CN2C(=O)[C@@H](NC(=O)CCCCCCCCC(=O)N2CCN(c3ccc(C(=O)Nc4n[nH]c5ccc(Cc6cc(F)cc(F)c6)cc45)c(NC4CCOCC4)c3)CC2)C(C)(C)C)cc1 [CPD-034, (2S,4R)-1-((S)-2-(10-(4-(4-((5-(3,5-Difluorobenzyl)-1H-indazol-3-yl)carbamoyl)-3-((tetrahydro-2H-pyran-4-yl)amino)phenyl)piperazin-1-yl)-10-oxodecanamido)-3,3-dimethylbutanoyl)-4-hydroxy-N-(4-(4-methylthiazol-5-yl)benzyl)pyrrolidine-2-carboxamide] | 300
O=C1CCC(N2C(=O)c3cccc(NCCCCCCC(=O)N4CCN(c5cccc(-c6cnc7ccc(N8CCC[C@@H]8c8cccc(F)c8)nn67)n5)CC4)c3C2=O)C(=O)N1 (stereo partly drawn) [CPD-009, 2-(2,6-Dioxopiperidin-3-yl)-4-((7-(4-(6-(6-((R)-2-(3-fluorophenyl)pyrrolidin-1-yl)imidazo[1,2-b]pyridazin-3-yl)pyridin-2-yl)piperazin-1-yl)-7-oxoheptyl)amino)isoindoline-1,3-dione] | 35
O=C(CN1CCN(c2ccc(C(=O)Nc3n[nH]c4ccc(Cc5cc(F)cc(F)c5)cc34)c(NC3CCOCC3)c2)CC1)NCCOCCOCCOCCOCCOCCNc1cccc2c1C(=O)N(C1CCC(=O)NC1=O)C2=O (stereo not shown) [CPD-065, N-(5-(3,5-difluorobenzyl)-1H-indazol-3-yl)-4-(4-(20-((2-(2,6-dioxopiperidin-3-yl)-1,3-dioxoisoindolin-4-yl)amino)-2-oxo-6,9,12,15,18-pentaoxa-3-azaicosyl)piperazin-1-yl)-2-((tetrahydro-2H-pyran-4-yl)amino)benzamide] | 72.6
O=C1CCC(N2C(=O)c3cccc(NCCCCCCCC(=O)N4CCN(c5ccc(C(=O)Nc6n[nH]c7ccc(Cc8cc(F)cc(F)c8)cc67)c(NC6CCOCC6)c5)CC4)c3C2=O)C(=O)N1 (stereo not shown) [CPD-052, N-(5-(3,5-difluorobenzyl)-1H-indazol-3-yl)-4-(4-(8-((2-(2,6-dioxopiperidin-3-yl)-1,3-dioxoisoindolin-4-yl)amino)octanoyl)piperazin-1-yl)-2-((tetrahydro-2H-pyran-4-yl)amino)benzamide] | 60
Cc1ncsc1-c1ccc(CNC(=O)[C@@H]2C[C@@H](O)CN2C(=O)[C@@H](NC(=O)CCOCCOCCOCCOCCC(=O)N2CCN(c3cccc(-c4cnc5ccc(N6CCC[C@@H]6c6cccc(F)c6)nn45)n3)CC2)C(C)(C)C)cc1 [CPD-019, (2S,4R)-1-((S)-2-(tert-butyl)-19-(4-(6-(6-((R)-2-(3-Fluorophenyl)pyrrolidin-1-yl)imidazo[1,2-b]pyridazin-3-yl)pyridin-2-yl)piperazin-1-yl)-4,19-dioxo-7,10,13,16-tetraoxa-3-azanonadecanoyl)-4-hydroxy-N-(4-(4-methylthiazol-5-yl)benzyl)pyrrolidine-2-carboxamide] | 500
Cc1ncsc1-c1ccc(CNC(=O)[C@@H]2C[C@@H](O)CN2C(=O)[C@@H](NC(=O)CCCCC(=O)N2CCN(c3ccc(C(=O)Nc4n[nH]c5ccc(Cc6cc(F)cc(F)c6)cc45)c(NC4CCOCC4)c3)CC2)C(C)(C)C)cc1 [CPD-044, (2S,4R)-1-((S)-2-(6-(4-(4-((5-(3,5-difluorobenzyl)-1H-indazol-3-yl)carbamoyl)-3-((tetrahydro-2H-pyran-4-yl)amino)phenyl)piperazin-1-yl)-6-oxohexanamido)-3,3-dimethylbutanoyl)-4-hydroxy-N-(4-(4-methylthiazol-5-yl)benzyl)pyrrolidine-2-carboxamide] | 73

same assay, conditions: Homo sapiens, 72 h; Table 3; KM12 cell viability, CellTiter-Glo, 3 days; read-out: IC50

SMILES | IC50 [nM]
O=C(CN1CCN(c2ccc(C(=O)Nc3n[nH]c4ccc(Cc5cc(F)cc(F)c5)cc34)c(NC3CCOCC3)c2)CC1)NCCOCCOCCOCCOCCNc1ccc2c(c1)C(=O)N(C1CCC(=O)NC1=O)C2=O (stereo not shown) [TR-160, N-(5-(3,5-Difluorobenzyl)-1H-indazol-3-yl)-4-(4-(17-((2-(2,6-dioxopiperidin-3-yl)-1,3-dioxoisoindolin-5-yl)amino)-2-oxo-6,9,12,15-tetraoxa-3-azaheptadecyl)piperazin-1-yl)-2-((tetrahydro-2H-pyran-4-yl)amino)benzamide] | 4.8
O=C(CN1CCN(c2ccc(C(=O)Nc3n[nH]c4ccc(Cc5cc(F)cc(F)c5)cc34)c(NC3CCOCC3)c2)CC1)NCCCCNc1cccc2c1C(=O)N(C1CCC(=O)NC1=O)C2=O (stereo not shown) [TR-155, N-(5-(3,5-Difluorobenzyl)-1H-indazol-3-yl)-4-(4-(2-((4-((2-(2,6-dioxopiperidin-3-yl)-1,3-dioxoisoindolin-4-yl)amino)butyl)amino)-2-oxoethyl)piperazin-1-yl)-2-((tetrahydro-2H-pyran-4-yl)amino)benzamide] | 2.9
O=C1CCC(N2C(=O)c3ccc(CCC(=O)N4CCN(c5cccc(-c6cnc7ccc(N8CCC[C@@H]8c8cccc(F)c8)nn67)n5)CC4)cc3C2=O)C(=O)N1 (stereo partly drawn) [TR-194, 2-(2,6-Dioxopiperidin-3-yl)-5-(3-(4-(6-(6-((R)-2-(3-fluorophenyl)pyrrolidin-1-yl)imidazo[1,2-b]pyridazin-3-yl)pyridin-2-yl)piperazin-1-yl)-3-oxopropyl)isoindoline-1,3-dione] | 7.4
O=C(CN1CCN(c2cccc(-c3cnc4ccc(N5CCC[C@@H]5c5cccc(F)c5)nn34)n2)CC1)NCCCCCCCNc1ccc2c(c1)C(=O)N(C1CCC(=O)NC1=O)C2=O (stereo partly drawn) [TR-126, N-(7-((2-(2,6-dioxopiperidin-3-yl)-1,3-dioxoisoindolin-5-yl)amino)heptyl)-2-(4-(6-(6-((R)-2-(3-fluorophenyl)pyrrolidin-1-yl)imidazo[1,2-b]pyridazin-3-yl)pyridin-2-yl)piperazin-1-yl)acetamide] | 12.5
O=C1CCC(N2C(=O)c3ccc(NCCOCCOCCOCCC(=O)N4CCN(c5ccc(C(=O)Nc6n[nH]c7ccc(Cc8cc(F)cc(F)c8)cc67)c(NC6CCOCC6)c5)CC4)cc3C2=O)C(=O)N1 (stereo not shown) [TR-146, N-(5-(3,5-Difluorobenzyl)-1H-indazol-3-yl)-4-(4-(3-(2-(2-(2-((2-(2,6-dioxopiperidin-3-yl)-1,3-dioxoisoindolin-5-yl)amino)ethoxy)ethoxy)ethoxy)propanoyl)piperazin-1-yl)-2-((tetrahydro-2H-pyran-4-yl)amino)benzamide] | 4.2
O=C1CCC(N2Cc3ccc(NCC(=O)N4CCN(c5cccc(-c6cnc7ccc(N8CCC[C@@H]8c8cccc(F)c8)nn67)n5)CC4)cc3C2=O)C(=O)N1 (stereo partly drawn) [TR-189, 3-(6-((2-(4-(6-(6-((R)-2-(3-fluorophenyl)pyrrolidin-1-yl)imidazo[1,2-b]pyridazin-3-yl)pyridin-2-yl)piperazin-1-yl)-2-oxoethyl)amino)-1-oxoisoindolin-2-yl)piperidine-2,6-dione] | 2.5
O=C1CCC(N2Cc3ccc(CCCN4CCN(c5cccc(-c6cnc7ccc(N8CCC[C@@H]8c8cccc(F)c8)nn67)n5)CC4)cc3C2=O)C(=O)N1 (stereo partly drawn) [TR-185, 3-(6-(3-(4-(6-(6-((R)-2-(3-fluorophenyl)pyrrolidin-1-yl)imidazo[1,2-b]pyridazin-3-yl)pyridin-2-yl)piperazin-1-yl)propyl)-1-oxoisoindolin-2-yl)piperidine-2,6-dione] | 17.1
O=C(CN1CCN(c2ccc(C(=O)Nc3n[nH]c4ccc(Cc5cc(F)cc(F)c5)cc34)c(NC3CCOCC3)c2)CC1)NCCOCCNc1ccc2c(c1)C(=O)N(C1CCC(=O)NC1=O)C2=O (stereo not shown) [TR-161, N-(5-(3,5-Difluorobenzyl)-1H-indazol-3-yl)-4-(4-(2-((2-(2-((2-(2,6-dioxopiperidin-3-yl)-1,3-dioxoisoindolin-5-yl)amino)ethoxy)ethyl)amino)-2-oxoethyl)piperazin-1-yl)-2-((tetrahydro-2H-pyran-4-yl)amino)benzamide] | 4.7

same assay, conditions: Homo sapiens, 72 h; Table 4; KM12 cell viability, CellTiter-Glo, 3 days; read-out: IC50

SMILES | IC50 [nM]
O=C1CCC(N2C(=O)c3ccc(NCC(=O)NC4CN(c5cccc(-c6cnc7ccc(N8CCC[C@@H]8c8cccc(F)c8)nn67)n5)C4)cc3C2=O)C(=O)N1 (stereo partly drawn) [TR-213, 2-((2-(2,6-Dioxopiperidin-3-yl)-1,3-dioxoisoindolin-5-yl)amino)-N-(1-(6-(6-((R)-2-(3-fluorophenyl)pyrrolidin-1-yl)imidazo[1,2-b]pyridazin-3-yl)pyridin-2-yl)azetidin-3-yl)acetamide] | 22.7
Cn1c(=O)n(C2CCC(=O)NC2=O)c2cccc(NCCN3CCN(c4cccc(-c5cnc6ccc(N7CCC[C@@H]7c7cccc(F)c7)nn56)n4)CC3)c21 (stereo partly drawn) [TR-216, 3-[4-[2-[4-[6-[6-[(2R)-2-(3-Fluorophenyl)pyrrolidin-1-yl]imidazo[1,2-b]pyridazin-3-yl]-2-pyridyl]piperazin-1-yl]ethylamino]-3-methyl-2-oxo-benzimidazol-1-yl]piperidine-2,6-dione] | 3.6
O=C1CCC(N2Cc3cc(N4CC(CN5CCN(c6cccc(-c7cnc8ccc(N9CCC[C@@H]9c9cccc(F)c9)nn78)n6)CC5)C4)ccc3C2=O)C(=O)N1 (stereo partly drawn) [TR-205, 3-(5-(3-((4-(6-(6-((R)-2-(3-Fluorophenyl)pyrrolidin-1-yl)imidazo[1,2-b]pyridazin-3-yl)pyridin-2-yl)piperazin-1-yl)methyl)azetidin-1-yl)-1-oxoisoindolin-2-yl)piperidine-2,6-dione] | 122
COc1ccc(CN(CCN2CCN(c3cccc(-c4cnc5ccc(N6CCC[C@@H]6c6cccc(F)c6)nn45)n3)CC2)c2ccc3c(c2)C(=O)N(C2CCC(=O)NC2=O)C3=O)cc1 (stereo partly drawn) [TR-214, 2-(2,6-Dioxo-3-piperidyl)-5-(2-(4-(6-(6-((2R)-2-(3-fluorophenyl)pyrrolidin-1-yl)imidazo[1,2-b]pyridazin-3-yl)-2-pyridyl)piperazin-1-yl)ethyl-((4-methoxyphenyl)methyl)amino)isoindoline-1,3-dione] | 2.7
O=C1CCC(N2C(=O)c3ccc(N4CCC(CN5CCN(c6cccc(-c7cnc8ccc(N9CCC[C@@H]9c9cccc(F)c9)nn78)n6)CC5)C4)cc3C2=O)C(=O)N1 (stereo partly drawn) [TR-225, 2-(2,6-Dioxopiperidin-3-yl)-5-(3-((4-(6-(6-((R)-2-(3-fluorophenyl)pyrrolidin-1-yl)imidazo[1,2-b]pyridazin-3-yl)pyridin-2-yl)piperazin-1-yl)methyl)pyrrolidin-1-yl)isoindoline-1,3-dione] | 8.8
